Data taken from publication PMC9826768, “New polychlorinated bibenzyls from Rhododendron minutiflorum” (Natural Products and Bioprospecting, 2023).

Legend:
[1] = molecular target: α-glucosidase; test: α-glucosidase inhibitory activity (PNPG method); format: biochemical; conditions: mean ± SE; acarbose as positive control
Procedure: In order to evaluate the insecticidal activities of all the isolated compounds, their toxicities on D. citri Kuwayama were tested.
According to the previously reported method, all the isolated compounds were screened for α-glucosidase inhibitory activity.

[2] = tested on: Diaphorina citri Kuwayama; test: Insecticidal activity (toxicity) against the Asian citrus psyllid; format: in vivo; conditions: for corrected mortality rate of citrus psyllid: 4th day after the test started, compound concentration higher than 50 mg/L; for LD50: against D. citri, during 6 days after treatment (calculated using observations on day 6), Probit analysis
Procedure: To avoid accidental injury, all the D. citri were carefully collected and cultured. The insecticidal activities of eight compounds were evaluated using methods described in the literature with slightly modified. […] Finally, mortality was calculated every 24 h starting on the second day of the trial.

Oc1c(Cl)cc(CCc2c(Cl)cc(Cl)c(O)c2Cl)cc1Cl [Compound 1, 2,4,6,3′,5′-pentachloro-3,4′-dihydroxybibenzyl]
IC50 [1]: 82.8 ± 4.99 µM

Oc1c(Cl)cc(CCc2ccc(Cl)c(O)c2Cl)cc1Cl [Compound 2, 2,4,3′,5′-tetrachloro-3,4′-dihydroxybibenzyl]
corrected mortality rate of citrus psyllid [2]: higher than 50%
LD50 [2]: 27.15 mg/L

Oc1cc(CCc2cc(Cl)c(O)c(Cl)c2)c(Cl)cc1Cl [Compound 3, 4,6,3′,5′-tetrachloro-3,4′-dihydroxybibenzyl]
LD50 [2]: 48.50 mg/L
IC50 [1]: 60.4 ± 1.54 µM

Oc1cc(CCc2cc(Cl)c(O)c(Cl)c2)ccc1Cl [Compound 4, 4,3′,5′-trichloro-3,4′-dihydroxybibenzyl]
IC50 [1]: 17.9 ± 0.74 µM

COc1cc(CCc2cc(Cl)c(O)c(Cl)c2)ccc1Cl [Compound 5, 4,3′,5′-trichloro-4′-hydroxyl-3-methoxybibenzyl]
corrected mortality rate of citrus psyllid [2]: higher than 50%
LD50 [2]: 17.02 mg/L
IC50 [1]: 62.7 ± 6.87 µM

COc1cc(O)c(CCC(C)(C)O)c(CCc2ccccc2)c1 [Compound 6, 3-hydroxyl-5-methoxy-2-(3′-hydroxyl-3′-methylbutyl)-bibenzyl]
corrected mortality rate of citrus psyllid [2]: higher than 50%
LD50 [2]: 16.20 mg/L
IC50 [1]: 76 ± 12 µM

CC(C)=CCc1c(O)cc(O)cc1CCc1ccccc1 [Compound 7, 3,5-dihydroxyl-2-(3′-methyl-2′-butenyl)-bibenzyl]
LD50 [2]: 48.64 mg/L
IC50 [1]: 56.7 ± 1.42 µM

CC(C)=CCc1ccc(CCc2ccc(O)cc2)cc1O [Compound 8, 3,4″-dihydroxyl-4-(3′-methyl-2′-butenyl)-bibenzyl]
IC50 [1]: 65.4 ± 2.04 µM

O=C1CCC[C@@H]2[C@H]3CCCN4CCC[C@@H](CN12)[C@@H]34 [Matrine, matrine, reference compound]
LD50 [2]: 11.86 mg/L
